System: KRAS PDC multicell spheroid viability
Experiment: Anticancer human tumor 521955-158-R6-J3-PDC patient-derived pancreatic carcinoma cell line growth inhibition [KRAS2]
Details: for viability, T/C: stronger effect = lower value; active means viability on the fitted dose curve at most 10% of control; inactive means the rest
Outline: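 Combination screen of spheroid viability in tumor-cell co-cultures with endothelial (HUVEC) and mesenchymal stem cell stroma. Each agent was tested in half-log dilutions, topping at clinical Cmax or at 10 microM without a known Cmax.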

[1] = curve of first compound, second compound 0.1 µM
[2] = curve of first compound, second compound 0.316 µM
[3] = curve of first compound, second compound 1 µM
[4] = curve of first compound, second compound 3.16 µM
[5] = curve of first compound, second compound 10 µM
[6] = second compound 0.1 µM, first compound 0.000316 µM
[7] = second compound 0.1 µM, first compound 0.001 µM
[8] = second compound 0.1 µM, first compound 0.00316 µM
[9] = second compound 0.1 µM, first compound 0.01 µM
[10] = second compound 0.1 µM, first compound 0.0316 µM
[11] = second compound 0.1 µM, first compound 0.1 µM
[12] = second compound 0.316 µM, first compound 0.000316 µM
[13] = second compound 0.316 µM, first compound 0.001 µM
[14] = second compound 0.316 µM, first compound 0.00316 µM
[15] = second compound 0.316 µM, first compound 0.01 µM
[16] = second compound 0.316 µM, first compound 0.0316 µM
[17] = second compound 0.316 µM, first compound 0.1 µM
[18] = second compound 1 µM, first compound 0.000316 µM
[19] = second compound 1 µM, first compound 0.001 µM
[20] = second compound 1 µM, first compound 0.00316 µM
[21] = second compound 1 µM, first compound 0.01 µM
[22] = second compound 1 µM, first compound 0.0316 µM
[23] = second compound 1 µM, first compound 0.1 µM
[24] = second compound 3.16 µM, first compound 0.000316 µM
[25] = second compound 3.16 µM, first compound 0.001 µM
[26] = second compound 3.16 µM, first compound 0.00316 µM
[27] = second compound 3.16 µM, first compound 0.01 µM
[28] = second compound 3.16 µM, first compound 0.0316 µM
[29] = second compound 3.16 µM, first compound 0.1 µM
[30] = second compound 10 µM, first compound 0.000316 µM
[31] = second compound 10 µM, first compound 0.001 µM
[32] = second compound 10 µM, first compound 0.00316 µM
[33] = second compound 10 µM, first compound 0.01 µM
[34] = second compound 10 µM, first compound 0.0316 µM
[35] = second compound 10 µM, first compound 0.1 µM
[36] = second compound 0.1 µM, first compound 0.316 µM
[37] = second compound 0.1 µM, first compound 1 µM
[38] = second compound 0.1 µM, first compound 3.16 µM
[39] = second compound 0.316 µM, first compound 0.316 µM
[40] = second compound 0.316 µM, first compound 1 µM
[41] = second compound 0.316 µM, first compound 3.16 µM
[42] = second compound 1 µM, first compound 0.316 µM
[43] = second compound 1 µM, first compound 1 µM
[44] = second compound 1 µM, first compound 3.16 µM
[45] = second compound 3.16 µM, first compound 0.316 µM
[46] = second compound 3.16 µM, first compound 1 µM
[47] = second compound 3.16 µM, first compound 3.16 µM
[48] = second compound 10 µM, first compound 0.316 µM
[49] = second compound 10 µM, first compound 1 µM
[50] = second compound 10 µM, first compound 3.16 µM
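Further: drug exposure lasted seven days.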
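Wherever viability, T/C is given: 100% = DMSO vehicle wells and lower means fewer viable cells.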

CN(C)C/C=C/C(=O)Nc1cc2c(Nc3ccc(F)c(Cl)c3)ncnc2cc1O[C@H]1CCOC1 + CNCc1ccccc1-c1csc(C(C)Nc2nc(C)nc3cc(OC)c(OC)cc23)c1
1.98 nM: IC50 [4]
< 0.316 nM: IC50 [5]
active: viability, T/C [30] 0.34% | viability, T/C [31] 0.24% | viability, T/C [32] 0.21% | viability, T/C [33] 0.52% | viability, T/C [34] 0.26% | viability, T/C [35] 0.44%
> 100 nM: IC50 [1] | IC50 [2] | IC50 [3]
inactive: viability, T/C [6] 82.2% | viability, T/C [7] 77.5% | viability, T/C [8] 79.8% | viability, T/C [9] 81.3% | viability, T/C [10] 55% | viability, T/C [11] 53.6% | viability, T/C [12] 82.9% | viability, T/C [13] 77.8% | viability, T/C [14] 64.8% | viability, T/C [15] 71.9% | viability, T/C [16] 58.3% | viability, T/C [17] 56.7% | viability, T/C [18] 98.4% | viability, T/C [19] 68.2% | viability, T/C [20] 59.1% | viability, T/C [21] 50.7% | viability, T/C [22] 50.8% | viability, T/C [23] 53% | viability, T/C [24] 94.9% | viability, T/C [25] 106% | viability, T/C [26] 0.33% | viability, T/C [27] 0.98% | viability, T/C [28] 58.9% | viability, T/C [29] 2.28%

CC1COCCN1c1cc(-c2ccnn2C)c2ccnc(-c3ccn[nH]3)c2n1 (configuration not stated) + CNCc1ccccc1-c1csc(C(C)Nc2nc(C)nc3cc(OC)c(OC)cc23)c1
active: viability, T/C [27] 0.45% | viability, T/C [28] 0.29% | viability, T/C [29] 1.4% | viability, T/C [45] 0.26% | viability, T/C [46] 0.42% | viability, T/C [47] 0.43% | viability, T/C [33] 0.19% | viability, T/C [34] 0.19% | viability, T/C [35] 0.21% | viability, T/C [48] 0.16% | viability, T/C [49] 0.17% | viability, T/C [50] 0.3%
> 3160 nM: IC50 [1] | IC50 [2] | IC50 [3]
< 10 nM: IC50 [4] | IC50 [5]
inactive: viability, T/C [9] 83.9% | viability, T/C [10] 90.4% | viability, T/C [11] 80.4% | viability, T/C [36] 76.2% | viability, T/C [37] 64.4% | viability, T/C [38] 81.2% | viability, T/C [15] 79.5% | viability, T/C [16] 70.4% | viability, T/C [17] 71% | viability, T/C [39] 57.9% | viability, T/C [40] 69.3% | viability, T/C [41] 68.4% | viability, T/C [21] 68.6% | viability, T/C [22] 63.3% | viability, T/C [23] 58.1% | viability, T/C [42] 47.3% | viability, T/C [43] 55.1% | viability, T/C [44] 63.7%

COc1cc2nccc(Oc3ccc(NC(=O)C4(C(=O)Nc5ccc(F)cc5)CC4)cc3)c2cc1OC
> 10000 nM: IC50 (curve of compound)
inactive: viability, T/C (compound 0.316 µM) 95.7% [middle of 5 runs]

COc1cc2nccc(Oc3ccc(NC(=O)C4(C(=O)Nc5ccc(F)cc5)CC4)cc3)c2cc1OC + C=CC(=O)N1CCN(c2nc(=O)n(-c3c(C)ccnc3C(C)C)c3nc(-c4c(O)cccc4F)c(F)cc23)C(C)C1
> 10000 nM: IC50 [1] | IC50 [2] | IC50 [3] | IC50 [4] | IC50 [5]
inactive: viability, T/C [10] 91.9% | viability, T/C [11] 96.8% | viability, T/C [36] 96.7% | viability, T/C [37] 98.1% | viability, T/C [38] 119% | viability, T/C (second compound 0.1 µM, first compound 10 µM) 111% | viability, T/C [16] 95.3% | viability, T/C [17] 91.3% | viability, T/C [39] 102% | viability, T/C [40] 99.2% | viability, T/C [41] 115% | viability, T/C (second compound 0.316 µM, first compound 10 µM) 122% | viability, T/C [22] 89.8% | viability, T/C [23] 106% | viability, T/C [42] 96.9% | viability, T/C [43] 104% | viability, T/C [44] 119% | viability, T/C (second compound 1 µM, first compound 10 µM) 120% | viability, T/C [28] 85.5% | viability, T/C [29] 82.9% | viability, T/C [45] 87.4% | viability, T/C [46] 85% | viability, T/C [47] 99.1% | viability, T/C (second compound 3.16 µM, first compound 10 µM) 90.8% | viability, T/C [34] 64.9% | viability, T/C [35] 66.2% | viability, T/C [48] 52.2% | viability, T/C [49] 64.8% | viability, T/C [50] 53% | viability, T/C (second compound 10 µM, first compound 10 µM) 69.9%

CN(C)C/C=C/C(=O)Nc1cc2c(Nc3ccc(F)c(Cl)c3)ncnc2cc1O[C@H]1CCOC1 + COc1cc2nc(C)nc(NC(C)c3cc(N)cc(C(F)(F)F)c3)c2cc1OC1CCOC1
> 100 nM: IC50 [1] | IC50 [2] | IC50 [3]
inactive: viability, T/C [6] 89.3% | viability, T/C [7] 78.3% | viability, T/C [8] 72.3% | viability, T/C [9] 61.2% | viability, T/C [10] 54% | viability, T/C [11] 55.5% | viability, T/C [12] 93% | viability, T/C [13] 106% | viability, T/C [14] 78.5% | viability, T/C [15] 65% | viability, T/C [16] 54.7% | viability, T/C [17] 53.2% | viability, T/C [18] 105% | viability, T/C [19] 100% | viability, T/C [20] 89.5% | viability, T/C [21] 61.8% | viability, T/C [22] 56.1% | viability, T/C [23] 48.6% | viability, T/C [24] 84% | viability, T/C [25] 78.2% | viability, T/C [26] 46.9% | viability, T/C [27] 51.1% | viability, T/C [28] 44.4% | viability, T/C [29] 45.5% | viability, T/C [30] 59.8% | viability, T/C [31] 54.9% | viability, T/C [32] 50.2% | viability, T/C [33] 26.2% | viability, T/C [34] 32.8% | viability, T/C [35] 25.4%
3.2 nM: IC50 [5]
2.84 nM: IC50 [4]
